# Test results taken from paper PMC11272821, “Mechanistic safety assessment via multi-omic characterisation of systemic pathway perturbations following in vivo MAT2A inhibition” (Archives of Toxicology, 2024).
# Tested on: rat liver proteome
# Experiment: Liver label-free quantitative proteomics
# Format: in vivo
# Settings: for differentially expressed liver proteins vs vehicle control: adjusted p < 0.05 and Log2 FC > 0.5 or < −0.5
# Experimental: Liver tissue were homogenized in PreOmics iST buffer (PreOmics) using a bead ruptor. […] Peptides were purified using PreOmics iST cartridges and vacuum-centrifuged to dryness. Peptides were subsequently reconstituted in 2 vol% ACN and 0.1 vol% formic acid for single-run LC–MS analysis. Peptides were analyzed using a Thermo EASY-nLC1200 coupled online to an Exploris 480 Mass Spectrometer equipped with a Nanospray Flex Ion Source integrated with a column oven (PRSO-V1, Sonation) and a FAIMS unit. Peptides were separated using a nonlinear gradient and analyzed by acquiring spectra through Data Independent Acquisition (DIA). Data was analyzed using Spectronaut V15.7.2 (Biognosys AG) direct DIA analysis using an isoform Rat database (UniProt downloaded 22.02.2021) consisting of 9,746 protein entries utilizing the Pulsar search engine. Analysis settings were maintained to factory settings and identification was set to 1% false discovery rate (FDR) for precursor and protein level. Additional information is provided in Supplementary M&M.
# Data analysis was performed using R Statistical Software (version 4.3.0). Proteomics, transcriptomics and metabolomics expression changes were visualised using heatmaps showing log2 fold change relative to control. In the heatmaps missing values were highlighted in grey.
# Proteomics Analysis. Liver tissue was placed in vials containing 1.4 mm zirconia beads and taken up in 500 µL of PreOmics iST buffer (PreOmics). In a cold room set to 4 °C, tissues were homogenized utilizing a bead Ruptor 12 by shaking for 30 seconds for a total of 5 times using ‘high’ setting. Lysate was normalized using BCA assay (Thermo Fisher Scientific), and subsequently incubated at 95 °C for 10 min for reduction, and alkylation of proteins. A total of 50 μg from each sample was subjected to enzymatic cleavage for 3 h by adding equal amounts of endoproteinase Lys-C and trypsin (ThermoFisher Scientific, # A40009) in a 1:50 (wt/wt) enzyme:protein ratio. De-salting and purification were performed according to the PreOmics iST protocol on a styrene divinylbenzene reversed-phase sulfonate sorbent. Purified peptides were vacuum-centrifuged to dryness and reconstituted in double-distilled water with 2 vol% ACN and 0.1 vol% formic acid (FA) for single-run LC-MS analysis.
# Peptides were loaded onto a ReproSil-Pur 120 C18AQ 1.9 µm in-house packed to a 5 µm tip 75u ID × 360u × 50 cm column using Thermo EASY-nLC 1200 coupled online to an Exploris 480 Mass Spectrometer equipped with a Nanospray Flex Ion Source integrated with a column oven (PRSO-V1, Sonation) maintained at 50 °C. Peptides were separated using a nonlinear gradient: Mobile phase A was 0.1 vol% FA and 3 vol% acetonitrile (ACN) in water, Mobile phase B was 90 vol% ACN and 0.1 vol % FA. The gradient was operated at 250 nL/min flowing 3 vol% B for 3 min, 3 to 5 vol% B over 3 min, 5 to 17 vol % B over 120 min, 17 to 24 vol % B over 26 min, 24 to 30 vol% B over 14 min, 30 to 85 vol% B over 3 min.
structure (smiles),measurement,setting,value
Cn1cc2cc(-c3cc4[nH]nc(C5CC5)c4n(-c4ccc(OC(F)F)cc4)c3=O)ccc2n1 [AZ’9567],differentially expressed liver proteins vs vehicle control,3 mg/kg BID,around 357
same,differentially expressed liver proteins vs vehicle control,highest dose (30 mg/kg BID),519
same,A2m Log2FC,"liver protein, 3mg/kg",1.7
same,Abcb1 Log2FC,"liver protein, 3mg/kg",1.4
same,Abhd1 Log2FC,"liver protein, 3mg/kg",-1.8
same,Acaca Log2FC,"liver protein, 3mg/kg",-1
same,Acbd4 Log2FC,"liver protein, 3mg/kg",-0.7
same,Acly Log2FC,"liver protein, 3mg/kg",-1.1
same,Acsl1 Log2FC,"liver protein, 3mg/kg",-0.7
same,Acsl3 Log2FC,"liver protein, 3mg/kg",-0.8
same,Acsm2 Log2FC,"liver protein, 3mg/kg",1.4
same,Akap5 Log2FC,"liver protein, 3mg/kg",-1.0
same,Aldh1a1 Log2FC,"liver protein, 3mg/kg",1.7
same,Aldh1a7 Log2FC,"liver protein, 3mg/kg",1.5
same,Aldh16a1 Log2FC,"liver protein, 3mg/kg",-0.6
same,Alpl Log2FC,"liver protein, 3mg/kg",1.8
same,Als2 Log2FC,"liver protein, 3mg/kg",-1.1
same,Anpep Log2FC,"liver protein, 3mg/kg",0.8
same,Aox1 Log2FC,"liver protein, 3mg/kg",-0.6
same,Apeh Log2FC,"liver protein, 3mg/kg",-0.7
same,Apoc1 Log2FC,"liver protein, 3mg/kg",-1.2
same,Aqp8 Log2FC,"liver protein, 3mg/kg",0.8
same,Asns Log2FC,"liver protein, 3mg/kg",1.6
same,Baat Log2FC,"liver protein, 3mg/kg",-0.8
same,Banf1 Log2FC,"liver protein, 3mg/kg",0.8
same,Bhmt2 Log2FC,"liver protein, 3mg/kg",1.2
same,Bhmt Log2FC,"liver protein, 3mg/kg",1.7
same,Brix1 Log2FC,"liver protein, 3mg/kg",0.7
same,Ca5a Log2FC,"liver protein, 3mg/kg",1.1
same,Carnmt1 Log2FC,"liver protein, 3mg/kg",-1.4
same,Cbs Log2FC,"liver protein, 3mg/kg",-2.9
same,Ccnd1 Log2FC,"liver protein, 3mg/kg",12.4
same,Cdh1 Log2FC,"liver protein, 3mg/kg",0.7
same,Cdo1 Log2FC,"liver protein, 3mg/kg",-3.9
same,Ces2c Log2FC,"liver protein, 3mg/kg",1.4
same,Cfdp1 Log2FC,"liver protein, 3mg/kg",0.5
same,Chid1 Log2FC,"liver protein, 3mg/kg",0.9
same,Comt Log2FC,"liver protein, 3mg/kg",-0.5
same,Coq4 Log2FC,"liver protein, 3mg/kg",1.0
same,Csad Log2FC,"liver protein, 3mg/kg",-0.7
same,Ctbs Log2FC,"liver protein, 3mg/kg",-0.6
same,Cyp2c23 Log2FC,"liver protein, 3mg/kg",-0.6
same,Cyp4a2 Log2FC,"liver protein, 3mg/kg",1.4
same,Cyp4a10 Log2FC,"liver protein, 3mg/kg",1.7
same,Dbnl Log2FC,"liver protein, 3mg/kg",0.6
same,Dcakd Log2FC,"liver protein, 3mg/kg",1.0
same,Dkc1 Log2FC,"liver protein, 3mg/kg",0.6
same,Dmgdh Log2FC,"liver protein, 3mg/kg",1
same,Dohh Log2FC,"liver protein, 3mg/kg",0.8
same,Eif4ebp1 Log2FC,"liver protein, 3mg/kg",1.1
same,Enpep Log2FC,"liver protein, 3mg/kg",-0.8
same,Fabp5 Log2FC,"liver protein, 3mg/kg",-0.7
same,Fads1 Log2FC,"liver protein, 3mg/kg",-1.3
same,Fasn Log2FC,"liver protein, 3mg/kg",-0.7
same,Fdft1 Log2FC,"liver protein, 3mg/kg",0.9
same,Fdps Log2FC,"liver protein, 3mg/kg",0.5
same,Fgr Log2FC,"liver protein, 3mg/kg",1.5
same,Gimd1 Log2FC,"liver protein, 3mg/kg",-0.7
same,Gmpr Log2FC,"liver protein, 3mg/kg",0.8
same,Gnl3 Log2FC,"liver protein, 3mg/kg",1.0
same,Gnmt Log2FC,"liver protein, 3mg/kg",1.6
same,Gpcpd1 Log2FC,"liver protein, 3mg/kg",1.2
same,Gstm1 Log2FC,"liver protein, 3mg/kg",-0.8
same,Gstm2 Log2FC,"liver protein, 3mg/kg",-0.8
same,Gtpbp4 Log2FC,"liver protein, 3mg/kg",0.7
same,Hexa Log2FC,"liver protein, 3mg/kg",-0.6
same,Hfe Log2FC,"liver protein, 3mg/kg",1.1
same,Hmgcs1 Log2FC,"liver protein, 3mg/kg",1.3
same,Hmgn2 Log2FC,"liver protein, 3mg/kg",1.0
same,Hnrnpa1 Log2FC,"liver protein, 3mg/kg",1.1
same,Hsd17b7 Log2FC,"liver protein, 3mg/kg",0.6
same,Idi1 Log2FC,"liver protein, 3mg/kg",0.9
same,Igf1 Log2FC,"liver protein, 3mg/kg",-1.4
same,Kalrn Log2FC,"liver protein, 3mg/kg",0.7
same,Lipa Log2FC,"liver protein, 3mg/kg",-0.8
same,Lrrc8d Log2FC,"liver protein, 3mg/kg",0.9
same,Lyrm2 Log2FC,"liver protein, 3mg/kg",0.8
same,Mat1a Log2FC,"liver protein, 3mg/kg",0.9
same,Mat2a Log2FC,"liver protein, 3mg/kg",0.8
same,Mat2b Log2FC,"liver protein, 3mg/kg",-1.9
same,Me1 Log2FC,"liver protein, 3mg/kg",-1
same,Mettl7b Log2FC,"liver protein, 3mg/kg",-0.6
same,Mettl26 Log2FC,"liver protein, 3mg/kg",-1.8
same,Minpp1 Log2FC,"liver protein, 3mg/kg",0.6
same,Mospd1 Log2FC,"liver protein, 3mg/kg",-0.5
same,Mt1 Log2FC,"liver protein, 3mg/kg",6.2
same,Mtr Log2FC,"liver protein, 3mg/kg",1.1
same,Mybbp1a Log2FC,"liver protein, 3mg/kg",0.7
same,Ncl Log2FC,"liver protein, 3mg/kg",0.6
same,Nob1 Log2FC,"liver protein, 3mg/kg",0.9
same,Orm1 Log2FC,"liver protein, 3mg/kg",1.1
same,Paics Log2FC,"liver protein, 3mg/kg",0.7
same,Pcyt1a Log2FC,"liver protein, 3mg/kg",0.7
same,Pklr.1 Log2FC,"liver protein, 3mg/kg",-1
same,Prmt1 Log2FC,"liver protein, 3mg/kg",0.6
same,Pspc1 Log2FC,"liver protein, 3mg/kg",0.5
same,Ptprs Log2FC,"liver protein, 3mg/kg",-0.9
same,Pum3 Log2FC,"liver protein, 3mg/kg",0.7
same,Rbm3 Log2FC,"liver protein, 3mg/kg",0.9
same,Rgn Log2FC,"liver protein, 3mg/kg",-0.7
same,Rmdn1 Log2FC,"liver protein, 3mg/kg",0.6
same,S1pr1 Log2FC,"liver protein, 3mg/kg",-0.7
same,Scd1 Log2FC,"liver protein, 3mg/kg",-2.8
same,Sh3glb1 Log2FC,"liver protein, 3mg/kg",0.7
same,Sirt2 Log2FC,"liver protein, 3mg/kg",0.7
same,Sts Log2FC,"liver protein, 3mg/kg",-0.7
same,Tat Log2FC,"liver protein, 3mg/kg",-1.5
same,Tceanc2 Log2FC,"liver protein, 3mg/kg",1.2
same,Thg1l Log2FC,"liver protein, 3mg/kg",0.5
same,Tpmt Log2FC,"liver protein, 3mg/kg",-1.3
same,Tspo Log2FC,"liver protein, 3mg/kg",1.7
same,Txnrd2 Log2FC,"liver protein, 3mg/kg",-0.8
same,Ube2f Log2FC,"liver protein, 3mg/kg",0.7
same,Ugt2b1 Log2FC,"liver protein, 3mg/kg",-1.6
same,Wdr45 Log2FC,"liver protein, 3mg/kg",-0.8
same,Ythdc1 Log2FC,"liver protein, 3mg/kg",0.7
same,mvd Log2FC,"liver protein, 3mg/kg",0.7
same,A2m Log2FC,"liver protein, 10mg/kg",3.3
same,Abcb1 Log2FC,"liver protein, 10mg/kg",1.6
same,Abhd1 Log2FC,"liver protein, 10mg/kg",-0.9
same,Acaca Log2FC,"liver protein, 10mg/kg",-1.2
same,Acbd4 Log2FC,"liver protein, 10mg/kg",-1.3
same,Acly Log2FC,"liver protein, 10mg/kg",-0.6
same,Acsl1 Log2FC,"liver protein, 10mg/kg",-0.7
same,Acsl3 Log2FC,"liver protein, 10mg/kg",-0.6
same,Acsl5 Log2FC,"liver protein, 10mg/kg",-0.6
same,Akap5 Log2FC,"liver protein, 10mg/kg",-1.6
same,Aldh1a1 Log2FC,"liver protein, 10mg/kg",1.5
same,Aldh1a7 Log2FC,"liver protein, 10mg/kg",1.4
same,Aldh16a1 Log2FC,"liver protein, 10mg/kg",-0.5
same,Alpl Log2FC,"liver protein, 10mg/kg",1.6
same,Als2 Log2FC,"liver protein, 10mg/kg",-0.9
same,Anpep Log2FC,"liver protein, 10mg/kg",1.3
same,Aox1 Log2FC,"liver protein, 10mg/kg",-1.3
same,Apeh Log2FC,"liver protein, 10mg/kg",-0.7
same,Apoc1 Log2FC,"liver protein, 10mg/kg",-0.9
same,Aqp8 Log2FC,"liver protein, 10mg/kg",0.9
same,Asns Log2FC,"liver protein, 10mg/kg",0.9
same,Baat Log2FC,"liver protein, 10mg/kg",-1.1
same,Banf1 Log2FC,"liver protein, 10mg/kg",0.7
same,Bhmt2 Log2FC,"liver protein, 10mg/kg",1.3
same,Bhmt Log2FC,"liver protein, 10mg/kg",1.7
same,Brix1 Log2FC,"liver protein, 10mg/kg",0.9
same,Ca5a Log2FC,"liver protein, 10mg/kg",0.7
same,Carnmt1 Log2FC,"liver protein, 10mg/kg",-1.5
same,Cbs Log2FC,"liver protein, 10mg/kg",-3.1
same,Ccnd1 Log2FC,"liver protein, 10mg/kg",17.1
same,Cdh1 Log2FC,"liver protein, 10mg/kg",0.7
same,Cdo1 Log2FC,"liver protein, 10mg/kg",-5.2
same,Ces2c Log2FC,"liver protein, 10mg/kg",1.2
same,Cfdp1 Log2FC,"liver protein, 10mg/kg",0.5
same,Chid1 Log2FC,"liver protein, 10mg/kg",1.0
same,Comt Log2FC,"liver protein, 10mg/kg",-0.6
same,Coq4 Log2FC,"liver protein, 10mg/kg",0.6
same,Csad Log2FC,"liver protein, 10mg/kg",-1.3
same,Ctbs Log2FC,"liver protein, 10mg/kg",-0.7
same,Cyp2c23 Log2FC,"liver protein, 10mg/kg",-1.1
same,Cyp4a10 Log2FC,"liver protein, 10mg/kg",0.7
same,Dbnl Log2FC,"liver protein, 10mg/kg",0.5
same,Dcakd Log2FC,"liver protein, 10mg/kg",1.3
same,Dkc1 Log2FC,"liver protein, 10mg/kg",0.6
same,Dmgdh Log2FC,"liver protein, 10mg/kg",0.5
same,Dohh Log2FC,"liver protein, 10mg/kg",0.9
same,Eif4ebp1 Log2FC,"liver protein, 10mg/kg",0.8
same,Enpep Log2FC,"liver protein, 10mg/kg",-0.8
same,Fabp4 Log2FC,"liver protein, 10mg/kg",1.1
same,Fdft1 Log2FC,"liver protein, 10mg/kg",0.7
same,Fgr Log2FC,"liver protein, 10mg/kg",1.6
same,Gimd1 Log2FC,"liver protein, 10mg/kg",-0.9
same,Gmpr Log2FC,"liver protein, 10mg/kg",0.7
same,Gnl3 Log2FC,"liver protein, 10mg/kg",0.9
same,Gnmt Log2FC,"liver protein, 10mg/kg",1.3
same,Gpcpd1 Log2FC,"liver protein, 10mg/kg",1.4
same,Gstm1 Log2FC,"liver protein, 10mg/kg",-0.7
same,Gstm2 Log2FC,"liver protein, 10mg/kg",-1.0
same,Gtpbp4 Log2FC,"liver protein, 10mg/kg",0.8
